The text below walks through data of US20250368649A1, “TETRAHYDROPYRIDOPYRIMIDINE PAN-KRAS INHIBITORS” (Mirati Therapeutics, Inc., priority 2022, published 2025).

In general, IC50 refers to the concentration at which inhibition is half-maximal.

For one assay, the target named is KRas G12S (Homo sapiens, UniProt P01116, G12S). In kind it is binding. As to conditions: TR-FRET displacement, read-out: Binding to KRas (IC50 nM) G12S. (In TR-FRET formats the signal depends on donor and acceptor labels being close together.)
KRas G12S, sequence (P01116 1-169 isoform P01116-2 G12S): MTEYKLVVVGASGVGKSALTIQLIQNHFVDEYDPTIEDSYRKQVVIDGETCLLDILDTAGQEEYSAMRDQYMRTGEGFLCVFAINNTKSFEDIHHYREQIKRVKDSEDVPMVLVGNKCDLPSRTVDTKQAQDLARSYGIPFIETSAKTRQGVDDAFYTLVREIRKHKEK
In another assay the target is KRas G13D (Homo sapiens, UniProt P01116, G13D). Type of assay: binding. As to conditions: TR-FRET displacement, read-out: Binding to KRas (IC50 nM) G13D.
KRas G13D, sequence (P01116 1-169 isoform P01116-2 G13D): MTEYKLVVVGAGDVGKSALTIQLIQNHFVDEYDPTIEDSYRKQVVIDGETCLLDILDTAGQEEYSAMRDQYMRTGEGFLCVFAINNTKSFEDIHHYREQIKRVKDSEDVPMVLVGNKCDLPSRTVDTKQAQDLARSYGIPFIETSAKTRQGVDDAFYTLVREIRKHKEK
The next assay addresses KRas G12A (Homo sapiens, UniProt P01116, G12A). Type of assay: binding. As to conditions: TR-FRET displacement, read-out: Binding to KRas (IC50 nM) G12A.
The next assay addresses KRas WT (Homo sapiens, UniProt P01116). Briefly: KRas binding assay (TR-FRET displacement), KRas WT. To be noted: TR-FRET displacement.
For the next assay, the target named is KRas G12V (Homo sapiens, UniProt P01116, G12V). Kind of assay: biochemical. To be noted: Binding to KRas (IC50 nM) G12V, TR-FRET displacement, KRas G12V.
KRas G12V, sequence (P01116 1-169 isoform P01116-2 G12V): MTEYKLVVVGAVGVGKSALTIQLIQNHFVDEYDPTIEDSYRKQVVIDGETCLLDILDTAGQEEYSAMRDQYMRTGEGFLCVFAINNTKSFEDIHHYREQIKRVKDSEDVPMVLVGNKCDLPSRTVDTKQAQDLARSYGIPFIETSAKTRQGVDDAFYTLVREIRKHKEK
Another assay concerns the target KRas G12D (Homo sapiens, UniProt P01116, G12D). Briefly: biochemical. To be noted: Binding to KRas (IC50 nM) G12D, TR-FRET displacement, KRas G12D.
A further assay concerns the target KRas G12C (Homo sapiens, UniProt P01116, G12C). In kind it is binding. As to conditions: TR-FRET displacement, read-out: Binding to KRas (IC50 nM) G12C.
For a further assay, the target named is KRas Q61H (Homo sapiens, UniProt P01116, Q61H). Kind of assay: KRas binding assay (TR-FRET displacement), KRas Q61H. To be noted: TR-FRET displacement.
KRas Q61H, sequence (P01116 1-169 isoform P01116-2 Q61H): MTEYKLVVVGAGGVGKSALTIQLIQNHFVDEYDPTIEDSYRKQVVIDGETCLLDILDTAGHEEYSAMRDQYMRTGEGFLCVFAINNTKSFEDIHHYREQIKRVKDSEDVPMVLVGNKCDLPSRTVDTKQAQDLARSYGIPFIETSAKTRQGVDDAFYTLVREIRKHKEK
A further assay has as its target KRas G12R (Homo sapiens, UniProt P01116, G12R). Briefly: biochemical. As to conditions: Binding to KRas (IC50 nM) G12R, TR-FRET displacement, KRas G12R.

KRas G12D, sequence (P01116 1-169 isoform P01116-2 G12D): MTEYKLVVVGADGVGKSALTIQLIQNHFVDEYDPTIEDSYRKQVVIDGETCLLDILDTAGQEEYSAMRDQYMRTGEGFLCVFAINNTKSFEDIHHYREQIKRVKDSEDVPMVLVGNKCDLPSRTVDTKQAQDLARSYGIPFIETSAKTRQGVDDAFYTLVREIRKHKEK
KRas G12C, sequence (P01116 1-169 isoform P01116-2 G12C): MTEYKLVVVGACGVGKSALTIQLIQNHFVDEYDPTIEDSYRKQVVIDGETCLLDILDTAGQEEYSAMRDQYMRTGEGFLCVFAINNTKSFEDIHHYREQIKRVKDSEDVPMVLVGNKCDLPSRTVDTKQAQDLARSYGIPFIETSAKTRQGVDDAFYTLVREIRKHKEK
KRas WT, sequence (P01116 1-169 isoform P01116-2): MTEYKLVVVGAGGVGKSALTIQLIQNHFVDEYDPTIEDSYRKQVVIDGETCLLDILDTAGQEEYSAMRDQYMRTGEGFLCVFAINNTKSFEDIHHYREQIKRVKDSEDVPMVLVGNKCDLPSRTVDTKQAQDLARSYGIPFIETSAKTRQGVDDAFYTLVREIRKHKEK
KRas G12A, sequence (P01116 1-169 isoform P01116-2 G12A): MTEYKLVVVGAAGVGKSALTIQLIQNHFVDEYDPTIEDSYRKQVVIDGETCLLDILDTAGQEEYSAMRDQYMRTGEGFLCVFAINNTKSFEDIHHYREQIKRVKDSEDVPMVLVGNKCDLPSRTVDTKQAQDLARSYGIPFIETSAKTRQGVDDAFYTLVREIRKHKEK
KRas G12R, sequence (P01116 1-169 isoform P01116-2 G12R): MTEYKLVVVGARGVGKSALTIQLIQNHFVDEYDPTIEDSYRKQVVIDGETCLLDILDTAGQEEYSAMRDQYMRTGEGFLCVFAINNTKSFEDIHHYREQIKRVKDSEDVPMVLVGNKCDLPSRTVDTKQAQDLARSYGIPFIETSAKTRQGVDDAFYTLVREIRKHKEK

In the case of `CCc1cccc2cccc(N3CCc4c(nc(OCC56CCCN5CCC6)nc4N4CCC(O)CC(S(C)(=O)=O)C4)C3)c12` (single isomer, unassigned) [Example 479, 1-(7-(8-ethylnaphthalen-1-yl)-2-((tetrahydro-1H-pyrrolizin-7a(5H)-yl)methoxy)-5,6,7,8-tetrahydropyrido[3,4-d]pyrimidin-4-yl)-6-(methylsulfonyl)azepan-4-ol], the IC50 is 56 nM at KRas G12S; 32 nM on KRas G13D; 55 nM at KRas G12A; 33 nM on KRas WT; 54 nM on KRas G12V; 99 nM on KRas G12D. The IC50 was 81 nM at KRas G12C, 42 nM on KRas Q61H and 130 nM on KRas G12R.
For the molecule `CCc1cccc2cccc(N3CCc4c(nc(OCC5(CN(C)C)CC5)nc4NCc4nc(C5CC5)n[nH]4)C3)c12` [Example 675, N-((3-cyclopropyl-1H-1,2,4-triazol-5-yl)methyl)-2-((1-((dimethylamino)methyl)cyclopropyl)methoxy)-7-(8-ethylnaphthalen-1-yl)-5,6,7,8-tetrahydropyrido[3,4-d]pyrimidin-4-amine], the 50% inhibitory concentration (IC50) is 16600 nM at KRas G12S; 15300 nM at KRas G13D; 17300 nM at KRas G12A; 16900 nM on KRas WT; 3240 nM at KRas G12V; 6300 nM at KRas G12D. For the same molecule, the IC50 came to 8480 nM on KRas G12C and 25300 nM on KRas Q61H.
In the case of `CCc1cccc2cccc(N3CCc4c(nc(OCC5(CN(C)C)CC5)nc4NC4CN(C(=O)NC)C4)C3)c12` [Example 676, 3-((2-((1-((dimethylamino)methyl)cyclopropyl)methoxy)-7-(8-ethylnaphthalen-1-yl)-5,6,7,8-tetrahydropyrido[3,4-d]pyrimidin-4-yl)amino)-N-methylazetidine-1-carboxamide], the IC50 at KRas G12S turned out to be 7090 nM; at KRas G13D, 6220 nM; on KRas G12A, 6300 nM; at KRas WT, 5010 nM; on KRas G12V, 1910 nM; on KRas G12D, 4290 nM. The half-maximal inhibitory concentration (IC50) at KRas G12C came out at 3410 nM; at KRas Q61H, 6700 nM.
Regarding `CCc1cccc2cccc(N3CCc4c(nc(OCC5(CN(C)C)CC5)nc4NCc4cnc(C)nc4N)C3)c12` [Example 677, N-((4-amino-2-methylpyrimidin-5-yl)methyl)-2-((1-((dimethylamino)methyl)cyclopropyl)methoxy)-7-(8-ethylnaphthalen-1-yl)-5,6,7,8-tetrahydropyrido[3,4-d]pyrimidin-4-amine], the concentration for half-maximal inhibition (IC50) was determined as 13600 nM at KRas G12S; 13900 nM on KRas G13D; 9110 nM at KRas G12A; 11000 nM on KRas WT; 4410 nM at KRas G12V; 2330 nM at KRas G12D. The half-inhibitory concentration (IC50) came out at 6330 nM at KRas G12C and 14100 nM at KRas Q61H.
As to `CCc1cccc2cccc(N3CCc4c(nc(OCC5(CN(C)C)CC5)nc4NCc4ccnn4CC(F)F)C3)c12` [Example 683, N-((1-(2,2-difluoroethyl)-1H-pyrazol-5-yl)methyl)-2-((1-((dimethylamino)methyl)cyclopropyl)methoxy)-7-(8-ethylnaphthalen-1-yl)-5,6,7,8-tetrahydropyrido[3,4-d]pyrimidin-4-amine], the IC50 is 8600 nM on KRas G12S; 16100 nM on KRas G13D; 8280 nM on KRas G12A; 10800 nM at KRas WT; 5850 nM at KRas G12V; 8310 nM at KRas G12D. Besides, the IC50 on KRas G12C was 5450 nM; at KRas Q61H, 12100 nM.
In the case of `CCc1cccc2cccc(N3CCc4c(nc(OCC5(CN(C)C)CC5)nc4N4CCC(n5cn[nH]c5=O)CC4)C3)c12` [Example 688, 4-(1-(2-((1-((dimethylamino)methyl)cyclopropyl)methoxy)-7-(8-ethylnaphthalen-1-yl)-5,6,7,8-tetrahydropyrido[3,4-d]pyrimidin-4-yl)piperidin-4-yl)-2,4-dihydro-3H-1,2,4-triazol-3-one], the IC50 on KRas G12S is 17700 nM; at KRas G13D, 14500 nM; at KRas G12A, 9730 nM; on KRas WT, 14600 nM; on KRas G12V it was 6430 nM; at KRas G12D it was 37400 nM. Besides, the values for the concentration for half-maximal inhibition (IC50) at KRas G12C and on KRas Q61H were 10000 nM and 18100 nM, respectively.
For the molecule `CCc1cccc2cccc(N3CCc4c(nc(OCC5(CN(C)C)CC5)nc4N4CCCn5nc(CO)cc5C4)C3)c12` [Example 694, (5-(2-((1-((dimethylamino)methyl)cyclopropyl)methoxy)-7-(8-ethylnaphthalen-1-yl)-5,6,7,8-tetrahydropyrido[3,4-d]pyrimidin-4-yl)-5,6,7,8-tetrahydro-4H-pyrazolo[1,5-a][1,4]diazepin-2-yl)methanol], the IC50 worked out at 946 nM on KRas G12S; 4480 nM at KRas G13D; 2220 nM at KRas G12A; 1930 nM on KRas WT; 437 nM on KRas G12V; 131 nM on KRas G12D. Moreover, the IC50 on KRas G12C worked out at 651 nM; at KRas Q61H it was 4850 nM.
On to `CCc1cccc2cccc(N3CCc4c(nc(OCC5(CN(C)C)CC5)nc4NC4CN(c5nccn6nc(C)cc56)C4)C3)c12` [Example 699, 2-((1-((dimethylamino)methyl)cyclopropyl)methoxy)-7-(8-ethylnaphthalen-1-yl)-N-(1-(2-methylpyrazolo[1,5-a]pyrazin-4-yl)azetidin-3-yl)-5,6,7,8-tetrahydropyrido[3,4-d]pyrimidin-4-amine], for which the IC50 amounted to 9980 nM at KRas G12S; 9980 nM on KRas G13D; 8450 nM at KRas G12A; 7340 nM on KRas WT; 5460 nM at KRas G12V; 6150 nM on KRas G12D. The IC50 on KRas G12C was found to be 4200 nM; on KRas Q61H, 8740 nM.
Consider `CCc1cccc2cccc(N3CCc4c(nc(OCC5(CN(C)C)CC5)nc4NCc4ncc5c(n4)CCOC5)C3)c12` [Example 701, N-((7,8-dihydro-5H-pyrano[4,3-d]pyrimidin-2-yl)methyl)-2-((1-((dimethylamino)methyl)cyclopropyl)methoxy)-7-(8-ethylnaphthalen-1-yl)-5,6,7,8-tetrahydropyrido[3,4-d]pyrimidin-4-amine], for which the IC50 was found to be 5830 nM at KRas G12S; 6620 nM on KRas G13D; 6300 nM on KRas G12A; 5290 nM at KRas WT; 2030 nM at KRas G12V; 7730 nM at KRas G12D. Further, the IC50 stood at 3620 nM at KRas G12C and 6070 nM on KRas Q61H.
For the molecule `CCc1cccc2cccc(N3CCc4c(nc(OCC5(CN(C)C)CC5)nc4NC4CC(n5ccnn5)C4)C3)c12` (stereo not shown) [Example 703, N-(3-(1H-1,2,3-triazol-1-yl)cyclobutyl)-2-((1-((dimethylamino)methyl)cyclopropyl)methoxy)-7-(8-ethylnaphthalen-1-yl)-5,6,7,8-tetrahydropyrido[3,4-d]pyrimidin-4-amine], the IC50 on KRas G12S was 13500 nM; on KRas G13D, 16100 nM; at KRas G12A, 13500 nM; at KRas WT it was 12400 nM; at KRas G12V, 4790 nM; on KRas G12D it was 10700 nM. Moreover, the IC50 at KRas G12C worked out at 9490 nM; at KRas Q61H it was 15900 nM.
Regarding `CCc1cccc2cccc(N3CCc4c(nc(OCC5(CN(C)C)CC5)nc4NCC4COCC4n4cc(C(N)=O)nn4)C3)c12` (stereo not shown) [Example 705, 1-(4-(((2-((1-((dimethylamino)methyl)cyclopropyl)methoxy)-7-(8-ethylnaphthalen-1-yl)-5,6,7,8-tetrahydropyrido[3,4-d]pyrimidin-4-yl)amino)methyl)tetrahydrofuran-3-yl)-1H-1,2,3-triazole-4-carboxamide], the half-inhibitory concentration (IC50) on KRas G12S worked out at 20500 nM; on KRas G13D, 21800 nM; on KRas G12A, 16500 nM; at KRas WT, 13300 nM; on KRas G12V it was 8520 nM; on KRas G12D, 3070 nM. In addition, the IC50 on KRas G12C came out at 10900 nM; on KRas Q61H it was 15900 nM.
For the molecule `CCc1cccc2cccc(N3CCc4c(nc(OCC5(CN(C)C)CC5)nc4NCc4ncc(C#N)c(N)n4)C3)c12` [Example 706, 4-amino-2-(((2-((1-((dimethylamino)methyl)cyclopropyl)methoxy)-7-(8-ethylnaphthalen-1-yl)-5,6,7,8-tetrahydropyrido[3,4-d]pyrimidin-4-yl)amino)methyl)pyrimidine-5-carbonitrile], the IC50 on KRas G12S was 2820 nM; on KRas G13D, 3330 nM; at KRas G12A it was 2810 nM; on KRas WT it was 3310 nM; at KRas G12V, 2200 nM; at KRas G12D, 7670 nM. Besides, the IC50 at KRas G12C was determined as 1680 nM; at KRas Q61H it was 3770 nM.
